The test system of this data set is HEK293T cells. The experiment in a line: Metabolic conversion and uptake of 2-hydroxylated fatty acids in HEK293T cell cultures. The data set is classed as in vitro ADME, human. The method, then: To describe the metabolic conversion of DHA-H to HPA(C21:5 ω-3), as well as the conversion of LA-H to HDA (C17:2 ω-6), ALA-H to HTA ω-3 (C17:3 ω-3), GLA-H to HTA ω-6 (C17:3 ω-6), ARA-H to NTA (C19:4 ω-6), EPA-H to NPA (C19:5 ω-3), HEK293T (Human Embryonic Kidney Cells 293T) cell cultures were employed, which is an embryonic, non-tumoral cell line, widely used in human metabolism studies under physiological conditions.
HEK293T cells were cultured in Dulbecco's Modified Eagle's Medium (DMEM; Dubelcco's Modified Eagle's Medium, Biowest, France), supplemented with 10% FBS (Fetal Bovine Serum; Gibco, Thermo-Fisher), 2 mM L-Gln, 25 mM D(+)-glucose, 1 mM sodium pyruvate, and penicillin/streptomycin. Mouse neuroblastoma N2a cells were maintained in a 1:1 (v:v) mixture of DMEM and Opti-Mem (Gibco, Thermo-Fisher), supplemented with 5% FBS and penicillin/streptomycin. Both cell lines were incubated in an atmosphere of 5% CO2 at 37° C.
HEK293T cells were incubated with DHA-H and DHA at 10, 30 and 100 μM for 24 hours, and at 30 μM for 6, 48 and 72 hours. These cells were also incubated with LA-H, ALA-H, GLA-H, ARA-H and EPA-H at 100 μM for 24 hours. HEK293T cells were also incubated with oxythiamine in the presence of DHA-H under the same conditions, at final oxythiamine concentrations of 1 and 10 mM. The HEK293T cells were separated from the plates by pipettes with cold phosphate buffer saline solution (PBS). Cells were recovered by centrifugation (1000 xg, 10 min at 4° C.) and washed twice with cold PBS before being frozen at −80° C. To analyze DHA-H and DHA levels in the cell culture medium, 90 mm diameter plates were filled with 11 mL of complete cell culture medium containing 30 μM DHA-H or DHA in the presence or absence of attached HEK293T cells (5.10^5 cells/plate). The plates were incubated as described above and 1 ml aliquots of the plates were collected at 0, 6, 24, 48 and 72 hours. Aliquots of the cell culture medium were immediately centrifuged at 1000×g for 10 min at 4° C. to remove any cell suspension and the cell-free aliquots were stored at -20° C.
The cell lysates were subjected to ultrasound pulses (4 cycles, 10 s/cycle, 10 W) before lipid extraction. For brain analysis, the tissue of each animal was homogenized in cold PBS at 1:10 (p:v) in the presence of protease inhibitors (Roche), using a blade homogenizer (Polytron PT3100). Homogenates were ultrasounded, aliquots were made and stored at −80 ° C. Only one aliquot of each sample, containing about 8 mg protein/aliquot, was subjected to lipid extraction. Protein content before lipid extraction was determined by a modified Lowry method (Bio-rad DC Protein Assay).
Margaric acid (C17:0) was added to the samples subjected to lipid extraction as an internal standard and the lipids were extracted with chloroform:methanol (Eggers and Schwudke, 2016). Briefly, 0.75 volumes of the aqueous phase (which already contained the biological sample) were mixed with 2 volumes of chloroform and 1 volume of methanol. This mixture was vortexed for 1 minute and centrifuged at 1000×g for 10 minutes. The lower organic phase was collected and washed with 1 ml of PBS:methanol (1:1,v:v), and the resulting organic phase was dried under argon flow. The film containing the extracted lipids was transmethylated by incubation of the lipid mixture for 90 minutes at 100° C. in 3 ml of methanol:acetyl chloride (10:1, v:v), under an argon atmosphere (Christie, 1993). The resulting fatty acid methyl esters (FAMEs) were extracted with hexane, adding 3 ml of H2O and 1 ml of hexane to the transmethylation reaction, and vortexing the mixture thoroughly. After centrifugation at room temperature (1000×g for 10 min), the upper phase containing the FAMEs was collected and the remaining volume was washed twice with 1 ml of hexane.

As for `CCC=CCC=CCC=CCC=CCC=CCC=CCC(O)C(=O)O` (stereo not drawn) [DHA-H, 2-hydroxy-drocosahexaenoic acid], the “Levels in the culture medium in the absence of cell culture” value (30 μM, up to 72 h, no cells) is listed as “remained constant over time”. For the compound `CC/C=C\C/C=C\C/C=C\C/C=C\C/C=C\CCCCC(=O)O` [HPA, (6Z,9Z,12Z,15Z,18Z)-heneicosa-6,9,12,15,18-pentaenoic acid], where the note is “HEK293T under DHA-H, from 24 hours of incubation and 30 μM”, the “Intracellular HPA levels compared to DHA-H levels” value is on record as “significantly higher than those of the prodrug”. For the same compound, the “Formation of the metabolite from its 2-hydroxylated prodrug in the presence of oxythiamine” value (HEK293T, prodrug 100 μM, 24 h, 10 mM oxythiamine) is “inhibited”.

The values are drawn from patent US20230097753A1, “ALPHA-HYDROXYLATED FATTY-ACID METABOLITES, MEDICAL USES AND USE AS BIOMARKERS” (UNIVERSITAT DE LES ILLES BALEARS, priority 2020, published 2023).
